# Experimental data from article PMC8011576 (Nature biomedical engineering, 2020).
# Entries after “also recorded” stand apart in the source; their conditions may differ. Like-named read-outs stand apart in the source and are kept apart here.
# Legend:
# OCT2 = test: Western blot of OCT2 in Kidney Chip; type: cell-based, human; conditions: cisplatin exposure, Western blot vs controls
# [1] = 396±16 μM nicotine infused into Gut Chip lumen for 84 hrs, MS
# [2] = rodent in vivo; ref Yamazaki et al [35]; cited from earlier work
# Gut Chip = conditions: nicotine in epithelial lumen
# [3] = system: intestinal epithelial cells and endothelial cells in Transwell inserts; conditions: nicotine, same intestinal epithelial and endothelial cells
# [4] = system: first pass human Organ Chips; conditions: nicotine exposure, linked Gut, Liver, Kidney Chips
# CYP3A4 = conditions: nicotine exposure, linked chips
# Liver Chip = test: Albumin production in Liver Chip; type: cell-based, human; conditions: nicotine exposure, linked chips
# [5] = cited from earlier work
# [6] = Human clinical nicotine PK; type: in vivo; conditions: blood, oral, 16 μM
# [7] = human clinical data, ref Digard et al. [28]
Compound,OCT2 expression in the Kidney Chip (OCT2),maximum level measured in the AV Reservoir [1] [µM],"Kidney Renal Clearance, CLR [2] [ml/min/kg.BW]","Liver Intrinsic Clearance, CLint [2] [ml/min/kg.BW]","intestinal barrier function of the Gut Chip, inulin tracer (Gut Chip)","intestinal barrier function of the Gut Chip, Cascade Blue tracer (Gut Chip; P < 0.03)",barrier change by TEER in static Transwell inserts [3],toxicity (LDH release) in first pass human Organ Chips [4],CYP3A4 activity in the Gut Chip (CYP3A4),albumin production in the Liver Chip (Liver Chip),unbound in vivo ([5]; clinical studies) [%],"Liver Intrinsic Clearance, CLint [5, 7] [ml/min/kg.BW]","Liver Secondary Intrinsic Clearance, CLint, sec [5, 7] [ml/min/kq.BW]",half-life [6] [min]
"N.N.[Cl][Pt][Cl] [Cisplatin, cisplatin]",increased; also recorded: upregulation,,,,,,,,,,,,,
"CN1CCC[C@H]1c1cccnc1 [Nicotine, nicotine]",,0.8 ± 0.08,5.5,300,could not detect any effect,significantly increased,did not detect a barrier change,did not detect toxicity,remained unchanged,remained unchanged,40,12.5,0.74,10.6
